Values joined by “and” are separate entries in the source; they are usually repeats but may differ in a detail not shown here. Identical values can stand only once. Like-named read-outs stand apart in the source and are kept apart here.
Tests used:
Format in all cases: cell-based
HIV-1 (IIIB) = assay: inhibition of HIV-1(IIIB) (WT) induced syncytium formation in CEM cells
From the text: (§1) CEM cells were obtained from the American Tissue Cell Culture Collection (Rockville, Md.) . HIV-1 (IIIB) was originally obtained from the culture supernatant of persistently HIV-1-infected H9 cells and was provided by R. C. Gallo and M. Popovic (National Cancer Institute, National Institutes of Health, Bethesda, Md.).
(§2) CEM cells were suspended at ≈300,000 cells per ml of culture medium and infected with approximately 100 CCID50 (CCID50 being the 50% cell culture infective dose) of HIV-1(IIIB) (designated as "WT" in Table 3) or one of the HIV-1 RT mutant strains described above. Then 100 μl of the infected cell suspensions was added to 200 μl microtiter plate wells containing 100 μl of appropriate serial (5-fold) dilutions of the test compounds. The inhibitiory effect of the test compounds on HIV-1 induced syncytium formation in CEM cells was examined microscopically on day 4 post infection. The 50% effective concentration (EC50) was defined as the test compound concentration that inhibits syncytium formation in the HIV-1-infected cell cultures by 50%.

HIV-1/184-Ile = assay: inhibition of syncytium formation in CEM cells, HIV-1 RT mutant 184-Ile; conditions: Human immunodeficiency virus 1, CCRF-CEM, 96 h, read-out: EC50 184-IIe
From the text: as §1
(§3) The selection and characterization of the HIV-1 RT mutant strains were done as follows: HIV-1/100-Ile ("100-Ile") was selected for resistance against TIBO R82150 as described in Balzarini et al, Virology 192: 246-253 (1993); HIV-1/103-Asn ("103-Asn") was selected for resistance against TIBO R82913 as described in Balzarini et al, Virology 192: 246-253 (1993); HIV-1/106-Ala ("106-Ala") was selected for resistance against nevirapine as described in Balzarini et al, J. Virol. 67: 5353-5359 (1993); HIV-1/Lys-138 ("Lys-138") was selected for resistance against TSAO-m^3T as described in Balzarini et al, Virology 192: 246-253 (1993) and Balzarini et al, Proc. Nat. Acad. Sci. USA 90: 6952-6956 (1993); HIV-1/181-Cys ("181-Cys") was selected for resistance against pyridinone L-697,661 as described in Balzarini et al, Virology 192: 246-253 (1993); and HIV-1/188-His ("188-His") was selected for resistance against HEPT as described in Balzarini et al, Mol. Pharmocol. 44: 694-701 (1993). 188-His was then further converted to HIV-1/188-Leu ("188-Leu") upon further passage in cell culture in the absence of the HEPT. HIV-1/101-Glu ("101-Glu") and HIV-1/190-Glu ("190-Glu") were selected for resistance against the thiocarboxanilide derivative designated as UC38 as described in Balzarini et al, Antiviral Research 27: 219-236 (1995). HIV-1/184-Ile ("184-Ile") was selected for resistance against the combination of 3TC and TSAO-m^3 T as described in Balzarini et al, Molecular Pharm. 49: 882-890 (1996). HIV-1/184-Val ("184-Val") was selected for resistance against 3TC as described in Balzarini et al, Molecular Pharm. 49: 882-890 (1996).
as §2

138-Lys = assay: inhibition of syncytium formation in CEM cells, HIV-1 RT mutant 138-Lys; conditions: Human immunodeficiency virus 1, CCRF-CEM, 96 h, read-out: EC50 138-Lys
From the text: as §1, §3, §2

HIV-1/181-Cys = assay: inhibition of syncytium formation in CEM cells, HIV-1 RT mutant 181-Cys; conditions: Human immunodeficiency virus 1, CCRF-CEM, 96 h, read-out: EC50 181-Cys
From the text: as §1, §3, §2

HIV-1/100-Ile = assay: inhibition of syncytium formation in CEM cells, HIV-1 RT mutant 100-Ile; conditions: Human immunodeficiency virus 1, CCRF-CEM, 96 h, read-out: EC50 100-Ile
From the text: as §1, §3, §2

HIV-1/184-Val = assay: inhibition of syncytium formation in CEM cells, HIV-1 RT mutant 184-Val; conditions: Human immunodeficiency virus 1, CCRF-CEM, 96 h, read-out: EC50 184-Val
From the text: as §1, §3, §2

HIV-1/188-His = assay: inhibition of syncytium formation in CEM cells, HIV-1 RT mutant 188-His; conditions: Human immunodeficiency virus 1, CCRF-CEM, 96 h, read-out: EC50 188-His
From the text: as §1, §3, §2

103-Ala = assay: inhibition of syncytium formation in CEM cells, HIV-1 RT mutant 103-Ala; conditions: Human immunodeficiency virus 1, CCRF-CEM, 96 h, read-out: EC50 103-Ala
HIV-1/190-Glu = assay: inhibition of syncytium formation in CEM cells, HIV-1 RT mutant 190-Glu; conditions: Human immunodeficiency virus 1, CCRF-CEM, 96 h, read-out: EC50 190-Glu
From the text: as §1, §3, §2

HIV-1/101-Glu = assay: inhibition of syncytium formation in CEM cells, HIV-1 RT mutant 101-Glu; conditions: Human immunodeficiency virus 1, CCRF-CEM, 96 h, read-out: EC50 101-Glu
From the text: as §1, §3, §2

[1] = Table 2, day 4 post infection, replicate values, read-out: EC50, Activity Against HIV-1 (IIIB)
[2] = Human immunodeficiency virus 1, IIIB, CCRF-CEM, 96 h, Table 2, day 4 post infection, replicate values, read-out: EC50, Activity Against HIV-1 (IIIB)

Compound | EC50 (HIV-1 (IIIB); [1]) | EC50 (HIV-1 (IIIB); [2]) | other results
Cc1occc1C(=O)Nc1ccc(Cl)c(COc2ccccc2)c1 [Compound 1] | 2380 nM and 1550 nM and 4810 nM | – | –
Cc1occc1C(=S)Nc1ccc(Cl)c(COc2ccccc2)c1 [Compound 2] | 228 nM and 161 nM and 98.6 nM and 67.6 nM | – | –
Cc1occc1C(=S)Nc1ccc(Cl)c(COc2cccc(C(F)(F)F)c2)c1 [Compound 5] | 4110 nM and 3840 nM | 3880 nM | EC50 (HIV-1/184-Ile): > 2 µg/mL; EC50 (138-Lys): 1.73 µg/mL; EC50 (HIV-1/181-Cys): 0.33 µg/mL; EC50 (HIV-1/100-Ile): > 2 µg/mL; EC50 (HIV-1 (IIIB); Human immunodeficiency virus 1, IIIB, CCRF-CEM, 96 h, Table 3, HIV-1(IIIB), day 4 post infection, read-out: EC50 WT): 0.5 µg/mL; EC50 (HIV-1/184-Val): 0.93 µg/mL; EC50 (HIV-1/188-His): > 2 µg/mL; EC50 (103-Ala): > 2 µg/mL; EC50 (HIV-1/190-Glu): > 2 µg/mL; EC50 (HIV-1/101-Glu): > 2 µg/mL
Cc1occc1C(=O)Nc1ccc(Cl)c(COc2ccc(F)cc2)c1 [Compound 10] | 4260 nM | 4150 nM | –
COc1ccccc1OCc1cc(NC(=O)c2ccoc2C)ccc1Cl [Compound 12] | 488 nM and 379 nM and 899 nM | – | –
Cc1occc1C(=O)Nc1ccc(Cl)c(COc2ccccc2[N+](=O)[O-])c1 [Compound 13] | 301 nM and 208 nM and 358 nM | – | –
Cc1occc1C(=O)Nc1ccc(Cl)c(COc2ccccc2F)c1 [Compound 14] | 771 nM and 395 nM and 255 nM | – | –
Cc1occc1C(=O)Nc1ccc(Cl)c(COc2c(F)cccc2F)c1 [Compound 20] | 799 nM | 496 nM | –
Cc1occc1C(=O)Nc1ccc(Cl)c(COc2cccc([N+](=O)[O-])c2)c1 [Compound 26] | 4140 nM and 3660 nM | 4610 nM | –
COc1cccc(F)c1OCc1cc(NC(=O)c2ccoc2C)ccc1Cl [Compound 31] | 77.8 nM and 124 nM and 213 nM | – | –
CC(=O)Oc1ccccc1OCc1cc(NC(=S)c2ccoc2C)ccc1Cl [Compound 33] | 1390 nM and 2830 nM and 2670 nM | – | –
CCOc1ccccc1OCc1cc(NC(=S)c2ccoc2C)ccc1Cl [Compound 36] | 377 nM and 124 nM and 788 nM | – | –
CCc1ccccc1OCc1cc(NC(=O)c2ccoc2C)ccc1Cl [Compound 38] | 2880 nM and 1450 nM | – | –
Cc1occc1C(=O)Nc1ccc(Cl)c(COc2ccccc2C(F)(F)F)c1 [Compound 41] | 761 nM and 1110 nM | – | –
Cc1occc1C(=O)Nc1ccc(Cl)c(COc2ccc(F)cc2Cl)c1 [Compound 42] | 4660 nM and 18200 nM | – | –
Cc1occc1C(=S)Nc1ccc(Cl)c(COc2ccccc2-c2ccccc2)c1 [Compound 48] | 3110 nM and 2750 nM and 5410 nM | – | –
Cc1occc1C(=S)Nc1ccc(Cl)c(COc2ccccc2C(C)(C)C)c1 [Compound 49] | 384 nM and 599 nM and 1130 nM | – | –

Compound | EC50 (HIV-1 (IIIB); [1]) | EC50 (HIV-1 (IIIB); [2]) | other results
CCON=Cc1ccccc1OCc1cc(NC(=S)c2ccoc2C)ccc1Cl [Compound 50] | 1070 nM | – | –
COC(=O)c1ccccc1OCc1cc(NC(=S)c2ccoc2C)ccc1Cl [Compound 51] | 1000 nM and 226 nM and 915 nM and 568 nM | – | –
Cc1occc1C(=S)Nc1ccc(Cl)c(COc2ccccc2C=NN(C)C)c1 [Compound 57] | 214 nM and 76.6 nM and 79.2 nM | – | –
Cc1occc1C(=O)Nc1ccc(Cl)c(COc2c(F)c(F)cc(F)c2F)c1 [Compound 58] | 281 nM | 475 nM | –
Cc1occc1C(=O)Nc1ccc(Br)c(COc2c(F)ccc(F)c2F)c1 [Compound 61] | – | 2.05 nM | –
Cc1occc1C(=O)Nc1ccc(Br)c(COc2ccccc2C(F)(F)F)c1 [Compound 62] | 195 nM and 817 nM and 552 nM and 793 nM and 554 nM | – | –
Cc1occc1C(=S)Nc1ccc(Br)c(COc2ccccc2C(F)(F)F)c1 [Compound 65] | 0.281 nM | 0.29 nM | –
Cc1occc1C(=S)Nc1ccc(Cl)c(OCc2ccccc2F)c1 [Compound 70] | 9.67 nM | 12.2 nM | –
Cc1occc1C(=S)Nc1ccc(Cl)c(CSc2ccccc2F)c1 [Compound 71] | 342 nM and 128 nM and 396 nM | – | –
COC(=O)c1sccc1OCc1cc(NC(=S)c2ccoc2C)ccc1Cl [Compound 74] | 270 nM and 131 nM and 147 nM | – | –
Cc1occc1C(=O)Nc1ccc(Cl)c(OCc2sccc2Br)c1 [Compound 75] | 588 nM and 1500 nM and 2600 nM | – | –
Cc1occc1C(=S)Nc1ccc(Cl)c(OCc2sccc2Br)c1 [Compound 76] | 95.2 nM | 86.1 nM | –
Cc1occc1C(=S)Nc1ccc(Cl)c(CSc2ncccn2)c1 [Compound 78] | 302 nM and 696 nM and 375 nM | – | –
Cc1occc1C(=O)Nc1ccc(Cl)c(CSc2ccccn2)c1 [Compound 79] | 2830 nM and 2990 nM and 3300 nM and 1650 nM and 614 nM | – | –
Cc1occc1C(=O)Nc1ccc(Cl)c(COc2cccnc2)c1 [Compound 81] | 5500 nM and 3690 nM | – | –
Cc1occc1COc1cc(NC(=S)c2ccoc2C)ccc1Cl [Compound 84] | 66.1 nM and 255 nM | – | –

Now from value to compound, other results behind:

EC50 (HIV-1 (IIIB); [1]) | EC50 (HIV-1 (IIIB); [2]) | Compound | other results
13500 nM and 35000 nM | – | Cc1ccccc1OCc1cc(NC(=O)c2ccoc2C)ccc1Cl [Compound 9] | –
6710 nM and 7560 nM and 19600 nM and 10100 nM and 11000 nM | – | COc1cccc(OC)c1OCc1cc(NC(=S)c2ccoc2C)ccc1Cl [Compound 28] | –
3480 nM and 3400 nM and 3100 nM and 3760 nM | 3390 nM | Cc1occc1C(=O)Nc1ccc(Cl)c(COc2ccccc2C#N)c1 [Compound 29] | –
2290 nM and 3140 nM and 1230 nM | – | Cc1occc1C(=O)Nc1ccc(Cl)c(COc2ccccc2Br)c1 [Compound 35] | –
102 nM and 50.7 nM and 113 nM | – | Cc1occc1C(=O)Nc1ccc(Cl)c(COc2c(F)ccc(F)c2F)c1 [Compound 39] | –
13700 nM and 16200 nM | – | Cc1occc1C(=O)Nc1ccc(Cl)c(COc2ccccc2N)c1 [Compound 52] | –
6670 nM and 15300 nM | – | CC(=O)c1ccccc1OCc1cc(NC(=S)c2ccoc2C)ccc1Cl [Compound 54] | –
10000 nM and 9000 nM and 3730 nM and 4260 nM | – | CCCOc1ccccc1OCc1cc(NC(=S)c2ccoc2C)ccc1Cl [Compound 55] | –
2910 nM and 3580 nM | 2230 nM | CC(=NN(C)C)c1ccccc1OCc1cc(NC(=O)c2ccoc2C)ccc1Cl [Compound 56] | –
117 nM | 199 nM | Cc1occc1C(=S)Nc1ccc(Cl)c(COc2c(F)c(F)c(F)c(F)c2F)c1 [Compound 59] | –
10.6 nM and 4.62 nM | – | Cc1occc1C(=S)Nc1ccc(Cl)c(COc2c(F)c(F)cc(F)c2F)c1 [Compound 60] | –
7.55 nM | 7.45 nM | COc1cccc(F)c1OCc1cc(NC(=O)c2ccoc2C)ccc1Br [Compound 63] | –
359 nM and 317 nM and 244 nM | – | Cc1occc1C(=O)Nc1ccc(Cl)c(OCc2ccccc2F)c1 [Compound 69] | –
14900 nM and 12100 nM | – | Cc1occc1C(=O)Nc1ccc(Cl)c(CSc2ccccc2F)c1 [Compound 72] | –
131000 nM and 21200 nM | – | COC(=O)c1sccc1OCc1cc(NC(=O)c2ccoc2C)ccc1Cl [Compound 73] | –
251 nM and 299 nM and 1110 nM | – | Cc1occc1C(=S)Nc1ccc(Cl)c(CS(=O)(=O)c2ccccc2Cl)c1 [Compound 77] | –
150 nM | 218 nM | Cc1occc1C(=S)Nc1ccc(Cl)c(CSc2ccccn2)c1 [Compound 80] | –
1460 nM and 3150 nM and 2430 nM | – | Cc1occc1COc1cc(NC(=O)c2ccoc2C)ccc1Cl [Compound 82] | –
13300 nM and 12100 nM | 16500 nM | Cc1occc1C(=S)Nc1ccc(Cl)c(CSc2ccncc2)c1 [Compound 83] | –
211 nM | 151 nM | Cc1occc1C(=S)Nc1ccc(Cl)c(COc2cccnc2)c1 [Compound 85] | –
